Laboratory results as given in US11442057B2, “Method for screening anticancer agent inhibiting binding of AIMP2-DX2 and HSP70” (MEDICINAL BIOCONVERGENCE RESEARCH CENTER, priority 2016, dated 2022).

Legend:
AIMP2-DX2 protein = experiment: Western blot of AIMP2-DX2 protein expression level in H460 cells; type: cell-based, human; settings: HSP70 or HSP90 inhibitor treatment
[1] = test system: 293T cells overexpressing Strep-AIMP2-DX2; experiment: MTT assay of cell growth by AIMP2-DX2 in 293T cells overexpressing Strep-AIMP2-DX2; type: cell-based; settings: inhibitors 12 hours or si-HSP70
Experimental: The HSP70 inhibitors Pifithrin-u (PES), and VER155008 (VER) and the HSP90 inhibitors Geldanamycin (Gel) and PUH71(Pu) were treated on 293T cells overexpressing Strep-AIMP2-DX2 and 293T cells not over-expressing, respectively for 12 hours, and MTT (Amresco) assay was performed. Each experiment was performed three times independently. Strep-AIMP2-DX2 was overexpressed in 293T cells, in which HSP70 expression was reduced using HSP70-specific si-RNA (si-HSP70), and MTT assay was performed. Each experiment was performed three times independently.

A549 (Lung cancer cells) = experiment: MTT assay of cell activity in A549 lung cancer cells; type: cell-based; settings: 2.5, 5, 10, 20, 40 uM
[2] = test system: WI-26 (Normal lung cells); experiment: MTT assay of cell activity in WI-26 normal lung cells; settings: 2.5, 5, 10, 20, 40 uM
H460 cells xenograft = experiment: H460 xenograft in Balb/c nude mice; type: in vivo
Experimental: After the end of the experiment, the tumors were separated and weighed. The body weight and tumor size of the experimental animals were measured twice a week.

For NS(=O)(=O)C#Cc1ccccc1 [PES, Pifithrin-u], which “expression level of AIMP2-DX2 protein after inhibitor treatment” value (AIMP2-DX2 protein) is on record?
The value was “decreased”.

And the “increase in cell growth by AIMP2-DX2” value [1]?
The value was “No increase in cell growth by AIMP2-DX2 was observed”.

How did the “expression level of AIMP2-DX2 protein after inhibitor treatment” value (AIMP2-DX2 protein) turn out when CC(C)NCCCn1c(Sc2cc3c(cc2I)OCO3)nc2c(N)ncnc21 [PU, PUH71] was run?
Its value is “not affected”.

For Cc1ccc(S(=O)(=O)N[C@@H](Cc2c[nH]c3ccccc23)C(=O)Nc2ccc(N3CCOCC3)cc2)cc1 [BC-DXI-495], which “effect on lung cancer cell A549 (cell activity, MTT)” value (A549 (Lung cancer cells)) is on record?
Its value is “only lung cancer cells induce apoptosis”.

And the “effect on normal lung cell WI-26 (cell activity, MTT)” value [2]?
The value was “without any effect on normal cells”.

What about the “growth of cancer cells (tumor volume)” value (H460 cells xenograft; 50 mg/kg, 5 times a week, 10 times in total, compared with Taxol 15 mpk) of the same compound?
The value was “inhibited to a degree similar to that of the control group Taxol”.

What about the tumor weight (H460 cells xenograft; 50 mg/kg, tumors separated and weighed at end of experiment) of the same compound?
The tumor weight was “tumor suppressive effect was also confirmed in the tumor weight”.

What about the “body weight of mice” value (H460 cells xenograft; during the course of the experiment) of the same compound?
Its value is “no effect on the body weight”.

What does the source list for N#Cc1ccc(COC[C@H]2O[C@@H](n3c(NCc4ccc(Cl)c(Cl)c4)nc4c(N)ncnc43)[C@H](O)[C@@H]2O)cc1 [VER, VER155008]?
expression level of AIMP2-DX2 protein after inhibitor treatment (AIMP2-DX2 protein): decreased; increase in cell growth by AIMP2-DX2 [1]: No increase in cell growth by AIMP2-DX2 was observed
